molecular target: ROCK2 (human) (UniProt O75116); assay: Inhibition of ROCK2 Kinase Activity
Sequence (O75116 whole entry, looked up): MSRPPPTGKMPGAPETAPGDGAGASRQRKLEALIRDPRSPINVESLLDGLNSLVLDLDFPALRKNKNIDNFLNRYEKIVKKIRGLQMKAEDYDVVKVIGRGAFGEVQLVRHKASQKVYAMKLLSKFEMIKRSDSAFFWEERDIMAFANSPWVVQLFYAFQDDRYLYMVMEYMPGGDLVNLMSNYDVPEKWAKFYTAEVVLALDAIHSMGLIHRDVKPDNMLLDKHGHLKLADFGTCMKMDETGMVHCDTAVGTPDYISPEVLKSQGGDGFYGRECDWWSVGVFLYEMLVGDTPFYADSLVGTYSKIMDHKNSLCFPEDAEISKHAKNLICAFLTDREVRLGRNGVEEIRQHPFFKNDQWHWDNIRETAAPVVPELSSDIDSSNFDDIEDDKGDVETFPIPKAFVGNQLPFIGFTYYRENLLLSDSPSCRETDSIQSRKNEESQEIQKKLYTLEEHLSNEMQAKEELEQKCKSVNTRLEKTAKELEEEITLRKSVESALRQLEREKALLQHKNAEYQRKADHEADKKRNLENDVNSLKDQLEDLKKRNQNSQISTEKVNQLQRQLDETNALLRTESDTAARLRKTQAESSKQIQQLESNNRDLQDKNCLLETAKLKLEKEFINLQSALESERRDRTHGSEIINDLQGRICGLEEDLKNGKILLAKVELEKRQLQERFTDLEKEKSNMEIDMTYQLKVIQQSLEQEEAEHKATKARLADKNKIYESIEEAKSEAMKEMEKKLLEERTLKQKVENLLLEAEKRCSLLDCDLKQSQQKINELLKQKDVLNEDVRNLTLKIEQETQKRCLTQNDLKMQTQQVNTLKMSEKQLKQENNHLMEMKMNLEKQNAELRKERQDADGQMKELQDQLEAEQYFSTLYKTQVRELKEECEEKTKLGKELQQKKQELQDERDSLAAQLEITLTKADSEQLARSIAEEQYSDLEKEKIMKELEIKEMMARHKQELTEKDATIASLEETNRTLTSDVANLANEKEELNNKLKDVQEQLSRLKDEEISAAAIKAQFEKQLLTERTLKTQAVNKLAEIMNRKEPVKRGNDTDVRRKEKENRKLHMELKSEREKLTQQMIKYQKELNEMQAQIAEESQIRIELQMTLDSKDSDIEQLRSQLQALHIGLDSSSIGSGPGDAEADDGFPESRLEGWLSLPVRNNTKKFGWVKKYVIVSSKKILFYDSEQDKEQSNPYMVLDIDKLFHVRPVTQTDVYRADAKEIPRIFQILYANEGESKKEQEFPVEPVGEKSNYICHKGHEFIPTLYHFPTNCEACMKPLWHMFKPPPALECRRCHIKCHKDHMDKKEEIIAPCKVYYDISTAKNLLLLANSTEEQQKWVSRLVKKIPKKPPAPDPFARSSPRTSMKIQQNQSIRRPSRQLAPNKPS

| SMILES | IC50 [µM] |
| --- | --- |
| O=C(C=Cc1ccccc1)NCc1nc(-c2ccncc2)n[nH]1 | > 5 |
| O=C(NCc1nc(-c2ccncc2)n[nH]1)c1ccc2cccc(O)c2n1 | > 5 |
| O=C(NCc1nc(-c2ccncc2)n[nH]1)c1ccc2ccccc2c1O | ≤ 5 |
| O=C(c1cccs1)N1CCn2nc(-c3ccncc3)nc2C1 | > 5 |
| O=C(NCc1cc(-c2ccncc2)n[nH]1)c1ccc(O)cc1O | ≤ 5 |
| O=C(NCc1nc(-c2ccncc2)n[nH]1)c1ccccc1[N+](=O)[O-] | > 5 |
| CCCOc1ccc(C(=O)NCc2nc(-c3c[nH]c4ncccc34)n[nH]2)cc1 | > 5 |
| CC(C)(C)OC(=O)NCC[C@H](NC(=O)c1ccc(O)cc1O)c1nc(-c2ccncc2)n[nH]1 | ≤ 5 |
| O=C(NCc1nc(-c2c[nH]c3ncccc23)n[nH]1)c1ccc(Oc2cccc(O)c2)cc1 | > 5 |
| Cc1cccc(C(=O)NCc2nc(-c3c[nH]c4ncccc34)n[nH]2)c1[N+](=O)[O-] | > 5 |
| O=C(C=Cc1ccccc1C(F)(F)F)NCc1nc(-c2ccncc2)n[nH]1 | > 5 |
| CC(C)c1ccc(C(=O)NCc2nc(-c3ccncc3)n[nH]2)cc1 | > 5 |
| Cc1c(C(=O)NCc2nc(-c3c[nH]c4ncccc34)n[nH]2)cccc1[N+](=O)[O-] | > 5 |
| COc1cccc(C(=O)NCc2nc(-c3c[nH]c4ncccc34)cs2)c1 | ≤ 5 |
| CC(C(=O)NCc1nc(-c2c[nH]c3ncccc23)n[nH]1)c1cccc(C(=O)OCc2ccccc2)c1 (configuration not stated) | > 5 |
| O=C(NCc1nc(-c2c[nH]c3ncccc23)n[nH]1)c1cc(O)c(O)c(O)c1 | > 5 |
| Cc1ccsc1C(=O)NCc1nc(-c2ccncc2)n[nH]1 | ≤ 5 |
| O=C(NCc1nc(-c2ccncc2)n[nH]1)c1cccc2cc[nH]c12 | ≤ 5 |
| CC(C)(C)OC(=O)NCCCC(NC(=O)c1ccc(O)cc1O)c1nc(-c2ccncc2)n[nH]1 (configuration not stated) | ≤ 5 |
| O=C(C=Cc1ccccc1Cl)NCc1nc(-c2ccncc2)n[nH]1 | > 5 |
| Cc1cccc(C(=O)NCc2nc(-c3c[nH]c4ncccc34)n[nH]2)c1C | > 5 |

| SMILES | IC50 [µM] |
| --- | --- |
| CC(=O)Nc1cccc(C(=O)NCc2nc(-c3c[nH]c4ncccc34)n[nH]2)c1 | > 5 |
| O=C(C=Cc1ccccc1F)NCc1nc(-c2ccncc2)n[nH]1 | > 5 |
| CC(C)(C)OC(=O)N1CC(O)CC1C(=O)NCc1nc(-c2ccncc2)n[nH]1 (configuration not stated) | > 5 |
| O=C(C=Cc1ccccc1O)NCc1nc(-c2c[nH]c3ncccc23)n[nH]1 | > 5 |
| O=C(NCc1nc(-c2ccncc2)n[nH]1)c1n[nH]c2ccccc12 | ≤ 5 |
| COc1cccc(OC)c1C(=O)NCc1nc(-c2ccncc2)n[nH]1 | > 5 |
| CC(=O)c1cccc(C(=O)NCc2nc(-c3ccncc3)n[nH]2)c1 | > 5 |
| Cc1ccc(C(=O)NCc2nc(-c3ccncc3)n[nH]2)cc1 | > 5 |
| O=C(NCc1nc(-c2c[nH]c3ncccc23)n[nH]1)c1cc(Cl)c(O)c(Cl)c1 | > 5 |
| O=C(NCc1nc(-c2c[nH]c3ncccc23)n[nH]1)c1cc(Cl)ccc1Cl | > 5 |
| O=C(NCc1nc(-c2c[nH]c3ncccc23)n[nH]1)c1ccc2ncccc2c1 | > 5 |
| COc1cc(OC)cc(C(=O)NCc2nc(-c3c[nH]c4ncccc34)n[nH]2)c1 | > 5 |
| O=C(NCc1nc(-c2c[nH]c3ncccc23)n[nH]1)c1cccc(F)c1 | > 5 |
| COc1ccc(C(=O)NCc2nc(-c3ccncc3)n[nH]2)c(OC)c1OC | > 5 |
| COc1cc(OC)c(C(=O)NCc2nc(-c3ccncc3)n[nH]2)c(OC)c1 | > 5 |
| Cn1cnc(C(=O)NCc2nc(-c3c[nH]c4ncccc34)n[nH]2)c1 | > 5 |
| O=C(NCc1nc(-c2c[nH]c3ncccc23)n[nH]1)c1ccc(OCc2ccccc2)cc1 | > 5 |
| COc1ccc2cc(C(C)C(=O)NCc3nc(-c4ccncc4)n[nH]3)ccc2c1 (configuration not stated) | > 5 |
| CC(=O)Oc1ccc(C(=O)NCc2nc(-c3ccncc3)n[nH]2)cc1 | ≤ 5 |
| O=C(NCc1nc(-c2c[nH]c3ncccc23)n[nH]1)c1ncc[nH]1 | > 5 |
| O=C(Nc1cccc2c(-c3ccncc3)n[nH]c12)c1cccs1 | > 5 |

From the Kinase Knowledgebase extract (Sharma et al. 2016)
